Experimental data: EPA's ToxRefDB 2

Key:
mouse [1] = settings: Developmental neurotoxicity study, other, Oral, Gavage/Intubation, dose end: 147 PND, group: cannot be grouped
rat [2] = settings: Prenatal developmental toxicity study, wistar, Oral, Gavage/Intubation, dose end: 18 GD
mouse [3] = settings: Prenatal developmental toxicity study, cd1, Injection, Subcutaneous, dose end: 16 GD
mouse [4] = settings: Prenatal developmental toxicity study; cd1; Oral; Gavage/Intubation; dose end: 16 GD; group: developmental; developmental / developmental landmark / vaginal opening / vaginal opening + systemic / in life observation / body weight / litter weight + …
mouse [5] = settings: Multigenerational reproductive toxicity study, cd1, Oral, Feed, dose end: 1 generation
mouse [6] = settings: Multigenerational reproductive toxicity study; cd1; Oral; Feed; dose end: 2 generation; group: reproductive; reproductive / reproductive performance / reproductive performance other / NOS + reproductive / reproductive performance / fertility / …
rat [7] = settings: Prenatal developmental toxicity study, other, Oral, Gavage/Intubation, dose end: 15 GD
rat [8] = settings: Subchronic oral toxicity in rodents, other, Gavage/Intubation, dose end: 90 day, group: systemic, systemic / pathology microscopic / stomach / inflammation + systemic / pathology gross / stomach / thickened + systemic / pathology …
rat [9] = settings: Prenatal developmental toxicity study, other, Oral, Gavage/Intubation, dose end: 15 GD; remark: listed apart in the source
[10] = systemic / clinical chemistry / [other] / [other] + systemic / in life observation / clinical signs / [other] + systemic / in life …
[11] = systemic / in life observation / clinical signs / [other] + systemic / in life observation / clinical signs / aggressive behavior
[12] = group: developmental, systemic / in life observation / body weight / offspring (pup) weight + systemic / organ weight / epididymis / absolute + systemic / organ …
[13] = group: maternal, reproductive / reproductive performance / gestational length / gestational length + systemic / in life observation / body weight / body …
[14] = group: developmental, developmental / developmental malformation / general / [other] + developmental / developmental landmark / nipple development / nipple …
[15] = group: maternal, systemic / in life observation / body weight / body weight gain
[16] = group: developmental, developmental / developmental malformation / bone / curled + developmental / developmental malformation / mouth / jaw / cleft palate + …
[17] = group: developmental, developmental / developmental malformation / bone / bent + developmental / developmental malformation / mouth / jaw / cleft palate + …
[18] = group: maternal, systemic / in life observation / body weight / body weight
[19] = group: maternal, systemic / in life observation / body weight / body weight + reproductive / reproductive performance / resorptions / resorptions + systemic…

Question: What does the source list for `CC/C(=C(/CC)c1ccc(O)cc1)c1ccc(O)cc1` [Diethylstilbestrol]?
Answer: LOAEL (mouse [1]; [10]): > 0.003 mg/kg/day; NOAEL (mouse [1]; [10]): ≥ 0.003 mg/kg/day; LEL (mouse [1]; [11]): 0.0003 mg/kg/day; NEL (mouse [1]; [11]): < 0.0003 mg/kg/day; LEL (rat [2]; [12]): 0.03 mg/kg/day; LOAEL (rat [2]; [12]): > 0.03 mg/kg/day; NEL (rat [2]; [12]): < 0.03 mg/kg/day; NOAEL (rat [2]; [12]): ≥ 0.03 mg/kg/day; LEL (rat [2]; [13]): 0.03 mg/kg/day; LOAEL (rat [2]; [13]): > 0.03 mg/kg/day; NEL (rat [2]; [13]): < 0.03 mg/kg/day; NOAEL (rat [2]; [13]): ≥ 0.03 mg/kg/day; LEL (mouse [3]; [14]): 0.1 mg/kg/day; LOAEL (mouse [3]; [14]): > 0.1 mg/kg/day; NEL (mouse [3]; [14]): 0.05 mg/kg/day; NOAEL (mouse [3]; [14]): ≥ 0.1 mg/kg/day; LEL (mouse [3]; [15]): 0.0025 mg/kg/day; LOAEL (mouse [3]; [15]): 0.0025 mg/kg/day; NEL (mouse [3]; [15]): < 0.0025 mg/kg/day; NOAEL (mouse [3]; [15]): < 0.0025 mg/kg/day; LEL (mouse [4]): 0.01 mg/kg/day; LOAEL (mouse [4]): > 0.01 mg/kg/day; NEL (mouse [4]): < 0.01 mg/kg/day; NOAEL (mouse [4]): ≥ 0.01 mg/kg/day; NOAEL (mouse [5]; group: offspring, systemic / in life observation / body weight / offspring (pup) weight): ≥ 7.5e-09 mg/kg/day; NOAEL (mouse [5]; group: reproductive, reproductive / reproductive performance / reproductive performance other / NOS + reproductive / reproductive performance / fertility / …): ≥ 7.5e-09 mg/kg/day; NOAEL (mouse [6]): ≥ 7.5e-09 mg/kg/day

Question: `CCC12COCN1COC2` [5-Ethyl-1-aza-3,7-dioxabicyclo[3.3.0]octane] was tested. Which LEL (rat [7]; [16]) did it give?
Answer: The LEL was 650 mg/kg/day.

Question: What about the LOAEL (rat [7]; [16]) of the same compound?
Answer: The LOAEL was 650 mg/kg/day.

Question: And the NEL (rat [7]; [16])?
Answer: Its NEL is 250 mg/kg/day.

Question: What about the NOAEL (rat [7]; [16]) of the same compound?
Answer: The NOAEL was 250 mg/kg/day.

Question: And the LEL (rat [7]; [15])?
Answer: Its LEL is 650 mg/kg/day.

Question: And the LOAEL (rat [7]; [15])?
Answer: The LOAEL was 650 mg/kg/day.

Question: What about the NEL (rat [7]; [15]) of the same compound?
Answer: Its NEL is 250 mg/kg/day.

Question: What about the NOAEL (rat [7]; [15]) of the same compound?
Answer: Its NOAEL is 250 mg/kg/day.

Question: And the LEL (rat [8])?
Answer: Its LEL is 50 mg/kg/day.

Question: What about the LOAEL (rat [8]) of the same compound?
Answer: The LOAEL was 50 mg/kg/day.

Question: And the LEL (rat [9]; [17])?
Answer: Its LEL is 750 mg/kg/day.

Question: What about the LOAEL (rat [9]; [17]) of the same compound?
Answer: The LOAEL was 750 mg/kg/day.

Question: What about the NEL (rat [9]; [17]) of the same compound?
Answer: Its NEL is 500 mg/kg/day.

Question: And the NOAEL (rat [9]; [17])?
Answer: Its NOAEL is 500 mg/kg/day.

Question: And the LEL (rat [9]; [18])?
Answer: The LEL was 500 mg/kg/day.

Question: What about the LOAEL (rat [9]; [18]) of the same compound?
Answer: The LOAEL was 500 mg/kg/day.

Question: What about the NEL (rat [9]; [19]) of the same compound?
Answer: The NEL was 250 mg/kg/day.

Question: And the NOAEL (rat [9]; [19])?
Answer: Its NOAEL is 250 mg/kg/day.
